Assay results as given in patent publication US20030045557A1, “Thiadiazoles and oxadiazoles and their use as phosphodiesterase-7 inhibitors” (priority 2000, published 2003).

Biological target: T1, PDE7A1 (Homo sapiens, UniProt Q13946)
T1 construct: made in house; host or cells: Sf21 insect cells (baculovirus expression system)
Test: In vitro inhibition of phosphodiesterase 7 (enzymatic activity, cAMP substrate 50 nM)
Format: biochemical
Conditions: PDE7A1 expressed in Sf 21 insect cells; cAMP 50 nM; reaction 10 minutes; read-out: IC50 (PDE7)
Method: The capacity of the compounds of the invention to inhibit cyclic nucleotide phosphodiesterases was evaluated by measuring their IC50 (concentration necessary to inhibit the enzymatic activity by 50%).
PDE3A3, PDE4D3, and PDE7A1 were cloned and expressed in insect cells Sf 21 using the baculovirus expression system. The source of PDE103 and of PDE503 were human cell lines (respectively TPH1 human monocytes and MCF7 human breast adenocarcinoma). The various types of phosphodiesterases were obtained partially purified on an anion exchange column (Mono Q) according to a method adapted from Lavan B. E., Lakey T., Houslay M.D., Biochemical Pharmacology, 1989;38(22):4123-4136.
Measurement of the enzymatic activity for the various types of PDE was then made according to a method adapted from Thompson W. J. et al., Advances in Cyclic Nucleotide Research, ed. G. Brooker et al. New York: Raven Press, 1979;10:69-92.
The substrate used was cGMP for PDE1 and PDE5 and cAMP for PDE3, PDE4, and PDE7. The substrate concentration was 0.2 μM for PDE1, PDE3, and PDE5, 0.25 μM for PDE4, and 50 nM for PDE7.
The enzymatic reaction was stopped after 1 hour for PDE1, PDE3, and PDE5 and 10 minutes for PDE4 and PDE7.

T1 sequence (Q13946 whole entry, species assumed): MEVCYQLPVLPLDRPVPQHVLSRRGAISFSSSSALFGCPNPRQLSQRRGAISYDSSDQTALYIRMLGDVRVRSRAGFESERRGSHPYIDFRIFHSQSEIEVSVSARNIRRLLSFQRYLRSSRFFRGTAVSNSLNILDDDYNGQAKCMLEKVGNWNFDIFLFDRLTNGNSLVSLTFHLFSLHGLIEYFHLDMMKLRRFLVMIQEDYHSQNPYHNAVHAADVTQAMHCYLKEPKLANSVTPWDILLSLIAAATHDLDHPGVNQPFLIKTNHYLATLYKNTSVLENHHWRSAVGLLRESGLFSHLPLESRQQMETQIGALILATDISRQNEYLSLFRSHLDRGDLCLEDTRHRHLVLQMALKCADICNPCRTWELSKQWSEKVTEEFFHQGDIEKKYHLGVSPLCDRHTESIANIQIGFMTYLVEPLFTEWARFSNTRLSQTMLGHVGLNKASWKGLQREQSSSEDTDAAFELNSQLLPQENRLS

Structure (SMILES) | IC50 [nM]
Cn1nc(-c2ccc(S(C)(=O)=O)cc2)s/c1=N\[C@@H]1CCCC[C@H]1O (relative stereo) [Example I9, (1R*,2R*)-2-[5-(4-Methanesulfonyl-phenyl)-3-methyl-3H-[1,3,4]thiadiazol-2-ylideneamino-cyclohexanol] | 280
Cn1nc(-c2ccc(C(N)=O)cc2)s/c1=N\C1CCCCC1 [I37,3, 4-(5-Cyclohexylimino-4-methyl-4,5-dihydro-[1,3,4]thiadiazol-2-yl)-benzamide] | 62
COC(=O)c1cccc(-c2nn(C)/c(=N/C3CCCCC3)s2)c1 [Example I21, 3-(5-Cyclohexylimino-4-methyl-4,5-dihydro-[1,3,4]thiadiazol-2-yl)-benzoic acid methyl ester] | 150
COc1ccc(NC(=O)c2ccc(-c3nn(C)/c(=N/C4CCCCC4)s3)cc2)c(OC)n1 [I37,6, 4-(5-Cyclohexylimino-4-methyl-4,5-dihydro[1,3,4]thiadiazol-2-yl)-N-(2,6-dimethoxy-pyridin-3-yl)-benzamide] | 97
Cn1nc(-c2ccc(C(=O)NO)cc2)s/c1=N\C1CCCCC1 [I37,2, 4-(5-Cyclohexylimino-4-methyl-4,5-dihydro-[1,3,4]thiadiazol-2-yl)-N-hydroxy-benzamide] | 1200
Cn1nc(-c2cccc3cccnc23)s/c1=N\C1CCCCC1 [Example I28, Cyclohexyl-(3-methyl-5-quinolin-8-yl-3H-[1,3,4]thiadiazol-2-ylidene)-amine] | 230
COc1cc(-c2nn(C)/c(=N/C3CCCCC3)s2)cc(OC)c1O [Example I23, 4-(5-Cyclohexylimino-4-methyl-4,5-dihydro-[1,3,4]thiadiazol-2-yl)-2,6-dimethoxy-phenol] | 850
COc1c(O)cc(-c2nn(C)/c(=N/C3CCCCC3)s2)cc1O [I18,3, 5-(5-Cyclohexylimino-4-methyl-4,5-dihydro[1,3,4]thiadiazol-2yl)-2-methoxy-benzene-1,3-diol; compound with trifluoro-methanesulfonic acid] | 61
Cn1nc(-c2ccc(C(=O)NCc3ccncc3)cc2)s/c1=N\C1CCCCC1 [I37,10, 4-(5-Cyclohexylimino-4-methyl-4,5-dihydro[1,3,4]thiadiazol-2-yl)-N-pyridin-4-ylmethyl-benzamide] | 44
Cn1nc(-c2ccc(Cl)cc2)s/c1=N\C1CCCCC1 [I18,5, [5-(4-Chloro-phenyl)-3-methyl-3H-[1,3,4]thiadiazol-2-ylidene]-cyclohexyl-amine] | 1200
Cn1nc(-c2ccc(Cl)c(S(N)(=O)=O)c2)s/c1=N\C1CCCCC1 [Example I19, 2-Chloro-5-(5-cyclohexylimino-4-methyl-4,5-dihydro-[1,3,4]thiadiazol-2-yl)-benzenesulfonamide] | 70
Cn1nc(-c2ccc(Cl)cc2)s/c1=N\[C@@H]1CCCC[C@@H]1O (relative stereo) [I3,25, (1R*,2S*)-2-[5-(4-Chloro-phenyl)-3-methyl-3H-[1,3,4]thiadiazol-2-ylideneamino]-cyclohexanol] | 1200
COC(=O)c1ccc(-c2nn(C)/c(=N/C3CCCCC3)s2)cc1 [Example I37, 4-(5-Cyclohexylimino-4-methyl-4,5-dihydro-[1,3,4]thiadiazol-2-yl)-benzoic acid methyl ester] | 230
Cn1nc(-c2ccc(Cl)cc2)s/c1=N\c1ccc(F)c(C(=O)O)c1 [I2,1, 5-[5-(4-Chloro-phenyl)-3-methyl-3H[1,3,4]thiadiazol-2-ylideneamino]-2-fluoro-benzoic acid] | 130
